# Measured values taken from PubChem BioAssay (NCI).
#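 Protocol summary: plate cells (96-well), add compound at 5 concentrations, incubate 48 h, interpolate endpoints linearly. Abbreviation: GI50, concentration required for 50% inhibition of growth. At the TGI there is no net growth.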
# Tests used:
# Assay in all cases: growth of human tumour cells (NCI), 48 h
# [1] = test system: SF-268 CNS
# [2] = test system: COLO 205 colon
# [3] = test system: HOP-92 NSCLC
# [4] = test system: NCI-H460 lung
# [5] = test system: U251 CNS
# [6] = test system: TK-10 renal
# [7] = test system: MDA-MB-468 breast
# [8] = test system: NCI-H226 lung
# [9] = test system: A549 NSCLC
# [10] = test system: UACC-257 melanoma
# [11] = test system: HL-60(TB) leukemia
# [12] = test system: DU-145 prostate
# [13] = test system: OVCAR-8 ovarian
# [14] = test system: PC-3 prostate
# [15] = test system: HCT-15 colon
# [16] = test system: NCI-H522 lung
# [17] = test system: M14 melanoma
# [18] = test system: SW-620 colon
# [19] = test system: BT-549 breast
# [20] = test system: SN12C renal
# [21] = test system: EKVX NSCLC
# [22] = test system: A498 renal
# [23] = test system: T-47D breast
# [24] = test system: SK-MEL-2 melanoma
# [25] = test system: OVCAR-4 ovarian
# [26] = test system: MDA-MB-435
# [27] = test system: HOP-62 NSCLC
# [28] = test system: SK-MEL-28 melanoma
# [29] = test system: SR leukemia
# [30] = test system: UO-31 renal
# [31] = test system: SF-539 CNS
# [32] = test system: HCT-116 colon
# [33] = test system: MOLT-4 leukemia
# [34] = test system: 786-0 renal
# [35] = test system: ACHN renal
# [36] = test system: HT29 colon
# [37] = test system: SK-OV-3 ovarian
# [38] = test system: MDA-MB-231 breast
# [39] = test system: OVCAR-5 ovarian
# [40] = test system: SF-295 CNS
# [41] = test system: SNB-75 CNS
# [42] = test system: K-562 leukemia
# [43] = test system: MCF7 breast
# [44] = test system: KM12 colon
# [45] = test system: OVCAR-3 ovarian
# [46] = test system: NCI-H23 lung
# [47] = test system: HS 578T breast
# [48] = test system: SNB-19 CNS
# [49] = test system: MALME-3M melanoma
# [50] = test system: NCI/ADR-RES ovarian
# [51] = test system: CAKI-1 renal
# [52] = test system: CCRF-CEM leukemia
# [53] = test system: LOX IMVI melanoma
# [54] = test system: RPMI-8226 leukemia
# [55] = test system: IGROV1 ovarian
# [56] = test system: RXF 393 renal
# [57] = test system: SK-MEL-5 melanoma
# [58] = test system: UACC-62 melanoma
# [59] = test system: HCC-2998 colon
compound,measurement,setting,value
Fc1cccc(CNc2nc(SCCN3CCOCC3)nc3c2cnn3CC(Cl)c2ccc(Br)cc2)c1 (stereo not drawn),GI50,[1],10 µM
same,TGI,[1],> 100 µM
same,GI50,[2],4.31 µM
same,TGI,[2],20.5 µM
same,GI50,[3],13.4 µM
same,TGI,[3],> 100 µM
same,GI50,[4],5.04 µM
same,TGI,[4],> 100 µM
same,GI50,[5],6.12 µM
same,TGI,[5],> 100 µM
same,GI50,[6],43.8 µM
same,TGI,[6],> 100 µM
same,GI50,[7],2.62 µM
same,TGI,[7],8.48 µM
same,GI50,[8],13.2 µM
same,TGI,[8],98.4 µM
same,GI50,[9],4.88 µM
same,TGI,[9],> 100 µM
same,GI50,[10],13.9 µM
same,TGI,[10],> 100 µM
same,GI50,[11],3.85 µM
same,TGI,[11],50.4 µM
same,GI50,[12],39 µM
same,TGI,[12],> 100 µM
same,GI50,[13],10.7 µM
same,TGI,[13],> 100 µM
same,GI50,[14],6.58 µM
same,TGI,[14],> 100 µM
same,GI50,[15],1.94 µM
same,TGI,[15],4.5 µM
same,GI50,[16],8.22 µM
same,TGI,[16],> 100 µM
same,GI50,[17],7.96 µM
same,TGI,[17],> 100 µM
same,GI50,[18],2.89 µM
same,TGI,[18],10.4 µM
same,GI50,[19],21.2 µM
same,TGI,[19],57.4 µM
same,GI50,[20],12 µM
same,TGI,[20],> 100 µM
same,GI50,[21],8.05 µM
same,TGI,[21],> 100 µM
same,GI50,[22],30.4 µM
same,TGI,[22],> 100 µM
same,GI50,[23],3.28 µM
same,TGI,[23],> 100 µM
same,GI50,[24],11.9 µM
same,TGI,[24],37.5 µM
same,GI50,[25],8.81 µM
same,TGI,[25],> 100 µM
same,GI50,[26],11.5 µM
same,TGI,[26],> 100 µM
same,GI50,[27],25.8 µM
same,TGI,[27],> 100 µM
same,GI50,[28],8.51 µM
same,TGI,[28],> 100 µM
same,GI50,[29],2.5 µM
same,TGI,[29],> 100 µM
same,GI50,[30],5.11 µM
same,TGI,[30],> 100 µM
same,GI50,[31],4.58 µM
same,TGI,[31],> 100 µM
same,GI50,[32],4.82 µM
same,TGI,[32],> 100 µM
same,GI50,[33],2.58 µM
same,TGI,[33],15.7 µM
same,GI50,[34],5.7 µM
same,TGI,[34],> 100 µM
same,GI50,[35],5.83 µM
same,TGI,[35],> 100 µM
same,GI50,[36],1.86 µM
same,TGI,[36],3.82 µM
same,GI50,[37],> 100 µM
same,TGI,[37],> 100 µM
same,GI50,[38],4.25 µM
same,TGI,[38],52.6 µM
same,GI50,[39],14.1 µM
same,TGI,[39],> 100 µM
same,GI50,[40],4.16 µM
same,TGI,[40],> 100 µM
same,GI50,[41],6.5 µM
same,TGI,[41],> 100 µM
same,GI50,[42],2.69 µM
same,TGI,[42],> 100 µM
same,GI50,[43],4.61 µM
same,TGI,[43],> 100 µM
same,GI50,[44],4.81 µM
same,TGI,[44],> 100 µM
same,GI50,[45],53.1 µM
same,TGI,[45],> 100 µM
same,GI50,[46],17 µM
same,TGI,[46],> 100 µM
same,GI50,[47],8.83 µM
same,TGI,[47],> 100 µM
same,GI50,[48],16.2 µM
same,TGI,[48],> 100 µM
same,GI50,[49],3.02 µM
same,TGI,[49],24.9 µM
same,GI50,[50],4.52 µM
same,TGI,[50],> 100 µM
same,GI50,[51],5.07 µM
same,TGI,[51],> 100 µM
same,GI50,[52],5.41 µM
same,TGI,[52],> 100 µM
same,GI50,[53],2.9 µM
same,TGI,[53],11.6 µM
same,GI50,[54],4.33 µM
same,TGI,[54],> 100 µM
same,GI50,[55],34.4 µM
same,TGI,[55],> 100 µM
same,GI50,[56],2.44 µM
same,TGI,[56],21.3 µM
same,GI50,[57],7.54 µM
same,TGI,[57],20.3 µM
same,GI50,[58],8.76 µM
same,TGI,[58],23.8 µM
same,GI50,[59],3.46 µM
same,TGI,[59],> 100 µM
